Test results reported in the supplement of paper PMC10307832.

Tests used:
Assay in all cases: relative viability (nuclei count vs DMSO), 5 days (fraction); higher = more cells survive
Selumetinib + AZD7762 = compound: Cn1cnc2c(F)c(Nc3ccc(Br)cc3Cl)c(C(=O)NOCCO)cc21 [Selumetinib] + NC(=O)Nc1cc(-c2cccc(F)c2)sc1C(=O)N[C@H]1CCCNC1 [AZD7762] (partner 0.2 µM)
Summary of the method: (§1)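 For relative viability, nuclei counts in treated wells were divided by those in vehicle wells. Lung cancer cell lines had been pin-tool dosed in 1536-well plates the day after seeding and cultured for 5 days, then fixed and stained in one step (final 0.05% Triton X-100, 1% formaldehyde, 1 ug/ml Hoechst) and imaged at 4×. Doses were one drug alone or a fixed anchor-drug dose plus five library-drug doses (not always all listed) in √10 steps, and values are duplicate-plate medians.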

Venetoclax + Olaparib = compound: CC1(C)CCC(CN2CCN(c3ccc(C(=O)NS(=O)(=O)c4ccc(NCC5CCOCC5)c([N+](=O)[O-])c4)c(Oc4cnc5[nH]ccc5c4)c3)CC2)=C(c2ccc(Cl)cc2)C1 [Venetoclax] + O=C(c1cc(Cc2n[nH]c(=O)c3ccccc23)ccc1F)N1CCN(C(=O)C2CC2)CC1 [Olaparib] (partner 8 µM)
Summary of the method: as §1

Venetoclax + Luminespib = compound: CC1(C)CCC(CN2CCN(c3ccc(C(=O)NS(=O)(=O)c4ccc(NCC5CCOCC5)c([N+](=O)[O-])c4)c(Oc4cnc5[nH]ccc5c4)c3)CC2)=C(c2ccc(Cl)cc2)C1 [Venetoclax] + CCNC(=O)c1noc(-c2cc(C(C)C)c(O)cc2O)c1-c1ccc(CN2CCOCC2)cc1 [Luminespib] (partner 0.01 µM)
Summary of the method: as §1

Selumetinib + Pictilisib = compound: Cn1cnc2c(F)c(Nc3ccc(Br)cc3Cl)c(C(=O)NOCCO)cc21 [Selumetinib] + CS(=O)(=O)N1CCN(Cc2cc3nc(-c4cccc5[nH]ncc45)nc(N4CCOCC4)c3s2)CC1 [Pictilisib] (partner 1 µM)
Summary of the method: as §1

| Cell Line | relative viability (Selumetinib + AZD7762; first compound 0.02 µM) | relative viability (Selumetinib + AZD7762; first compound 0.06325 µM) | relative viability (Selumetinib + AZD7762; first compound 0.2 µM) | relative viability (Selumetinib + AZD7762; first compound 0.6325 µM) | relative viability (Venetoclax + Olaparib; first compound 0.01 µM) | relative viability (Venetoclax + Olaparib; first compound 0.03162 µM) | relative viability (Venetoclax + Olaparib; first compound 0.1 µM) | relative viability (Venetoclax + Olaparib; first compound 0.3162 µM) | relative viability (Venetoclax + Olaparib; first compound 1 µM) | relative viability (Venetoclax + Luminespib; first compound 0.01 µM) | relative viability (Venetoclax + Luminespib; first compound 0.03162 µM) | relative viability (Venetoclax + Luminespib; first compound 0.1 µM) | relative viability (Venetoclax + Luminespib; first compound 0.3162 µM) | relative viability (Venetoclax + Luminespib; first compound 1 µM) | relative viability (Selumetinib + Pictilisib; first compound 0.02 µM) | relative viability (Selumetinib + Pictilisib; first compound 0.06325 µM) | relative viability (Selumetinib + Pictilisib; first compound 0.2 µM) | relative viability (Selumetinib + Pictilisib; first compound 0.6325 µM) |
| --- | --- | --- | --- | --- | --- | --- | --- | --- | --- | --- | --- | --- | --- | --- | --- | --- | --- | --- |
| HCC-827 | 0.2 | 0.195 | 0.194 | 0.209 | 0.647 | 0.703 | 0.642 | 0.603 | 0.655 | 0.657 | 0.641 | 0.237 | 0.509 | 0.694 | 0.82 | 1.23 | 0.79 | 0.904 |
| LC-2-ad | 0.687 | 0.633 | 0.572 | 0.477 | 0.735 | 0.696 | 0.664 | 0.702 | 0.708 | 1.05 | 0.962 | 0.981 | 1.01 | 0.898 | 0.482 | 0.426 | 0.432 | 0.437 |
| NCI-H460 | 0.695 | 0.663 | 0.598 | 0.662 | 0.39 | 0.414 | 0.359 | 0.44 | 0.398 | 0.0354 | 0.0317 | 0.0311 | 0.0401 | 0.0316 | 0.272 | 0.249 | 0.207 | 0.209 |
| NCI-H441 | 1.07 | 0.974 | 1.01 | 0.69 | 0.627 | 0.646 | 0.568 | 0.611 | 0.582 | 0.337 | 0.372 | 0.434 | 0.299 | 0.427 | 0.472 | 0.363 | 0.306 | 0.292 |
| LCLC-97TM1 | 0.244 | 0.179 | 0.219 | 0.136 | 0.242 | 0.297 | 0.37 | 0.323 | 0.365 | 0.709 | 0.397 | 0.717 | 0.727 | 0.771 | 0.212 | 0.161 | 0.158 | 0.125 |
| COR-L23 |  |  |  |  | 0.331 | 0.473 | 0.313 | 0.382 | 0.314 | 0.469 | 0.669 | 0.728 | 0.71 | 0.651 | 0.84 | 0.699 | 0.784 | 0.713 |
| NCI-H2228 |  |  |  |  | 0.519 | 0.832 | 0.519 | 0.776 | 0.692 | 0.162 | 0.158 | 0.15 | 0.128 | 0.147 | 0.247 | 0.283 | 0.354 | 0.314 |
| LCLC-103H | 0.722 | 0.761 | 0.749 | 0.64 | 0.778 | 0.846 | 0.783 | 0.787 | 0.752 | 0.969 | 0.999 | 0.905 | 1.02 | 0.902 | 0.551 | 0.655 | 0.545 | 0.53 |
| COR-L 105 |  |  |  |  | 0.518 | 0.718 | 0.709 | 0.691 | 0.674 | 1.03 | 0.61 | 0.522 | 0.712 | 0.625 | 0.342 | 0.312 | 0.338 | 0.347 |
| SW 1573 |  |  |  |  | 0.581 | 0.516 | 0.479 | 0.473 | 0.399 | 0.234 | 0.152 | 0.153 | 0.385 | 0.215 | 0.366 | 0.427 | 0.342 | 0.386 |
| NCI-H2023 |  |  |  |  | 0.425 | 0.498 | 0.453 | 0.561 | 0.455 | 0.744 | 0.911 | 0.859 | 0.784 | 0.676 | 0.211 | 0.186 | 0.198 | 0.223 |
| NCI-H661 |  |  |  |  | 0.745 | 0.789 | 0.715 | 0.74 | 0.708 | 0.924 | 0.956 | 0.894 | 0.822 | 0.871 | 0.496 | 0.39 | 0.347 | 0.577 |
| NCI-H522 | 0.728 | 0.781 | 0.842 | 0.828 | 0.561 | 0.611 | 0.612 | 0.621 | 0.688 | 1.14 | 1.21 | 1.04 |  | 1.19 |  |  |  |  |
| NCI-H1648 |  | 0.737 | 0.733 | 0.67 |  | 0.766 | 0.698 | 0.841 | 0.713 |  |  |  |  |  |  |  |  |  |
| SK-MES-1 |  |  |  |  | 0.732 | 0.918 | 0.66 | 0.737 | 0.664 | 0.82 | 0.789 | 0.806 | 0.822 | 0.728 | 0.324 | 0.266 | 0.196 | 0.233 |
| NCI-H1650 |  |  |  |  | 0.763 | 0.733 | 0.994 | 0.592 | 0.745 | 0.196 | 0.202 | 0.2 | 0.189 | 0.207 | 0.53 | 0.44 | 0.524 | 0.525 |
| NCI-H2342 | 0.551 | 0.436 | 0.474 | 0.568 | 0.462 | 0.554 | 0.543 | 0.401 | 0.475 | 0.807 | 0.737 | 0.635 | 0.765 | 0.719 |  |  |  |  |
| NCI-H1299 |  |  |  |  | 0.975 | 0.991 | 1.01 | 0.927 | 0.943 |  |  |  |  |  | 0.673 | 0.51 | 0.389 | 0.359 |
| SW 900 | 0.59 | 0.636 | 0.611 | 0.553 | 0.76 | 0.866 | 0.841 | 0.845 | 0.819 | 0.163 | 0.153 | 0.197 | 0.168 | 0.182 |  |  |  |  |
| A549 |  |  |  |  | 0.302 | 0.376 | 0.311 | 0.35 | 0.339 |  |  |  |  |  | 0.441 | 0.377 | 0.256 | 0.238 |
| HCC-366 | 0.27 | 0.324 | 0.253 | 0.166 | 0.4 | 0.374 | 0.372 | 0.353 | 0.311 |  |  |  |  |  | 0.136 | 0.0735 | 0.124 | 0.115 |
| NCI-H520 |  |  |  |  | 0.388 | 0.315 |  | 0.327 | 0.387 | 0.258 | 0.209 | 0.221 | 0.209 | 0.187 | 0.293 | 0.24 | 0.31 | 0.292 |
